Source: patent publication US20200199528A1, “CELL CULTURE MEDIA FOR DIFFERENTIATION OF STEM CELLS INTO HEPATOCYTES” (KATHOLIEKE UNIVERSITEIT LEUVEN, priority 2017, published 2020)

Assays:
HepG2 cells = system: HepG2 cells
Experimental: PSC, HC3X and HC6X cells were differentiated in a 384 well format. Cells were treated with 14 different concentrations of compounds in 6 repeats. As a negative control 41 wells were left untreated. After 24 h of exposure media was aspirated and fresh media was added to the cells supplemented with […] of DRAQ 7 (Abcam; ab109202) and Hoechst dye (1/1000, Sigma, 33258) for 25 min at 37°. Cells were fixed with 4% paraformaldehyde. Imaging was done using an Operetta High-Content Imaging System (Perkin Elmer) and image analysis was performed using Harmony software (Perkin Elmer). Relative cell number was calculated as the percentage of living cells (draq7 positive amount subtracted from the Hoechst positive amount) relative to the average of living cells in the control wells. As a positive control, 2 donors of PHHs were seeded at 10 000 cells per well. Drugs were administrated after 8 hours of attachment. HepG2 cells were seeded at 40 000 cells per well. For control conditions HepG2 cells were exposed after 2 days of culture.

Experimental for HC6X cells: We cultured HC6X cells (both in an H9 background and in an) BJ1-iPSc background in 384 well format in AAGLY-supplemented medium.
PSC, HC3X and HC6X cells were differentiated in a 384 well format. Cells were treated with 14 different concentrations of compounds in 6 repeats. As a negative control 41 wells were left untreated. After 24 h of exposure media was aspirated and fresh media was added to the cells supplemented with 0.3 mM of DRAQ 7 (Abcam; ab109202) and Hoechst dye (1/1000, Sigma, 33258) for 25 min at 37°. Cells were fixed with 4% paraformaldehyde. Imaging was done using an Operetta High-Content Imaging System (Perkin Elmer) and image analysis was performed using Harmony software (Perkin Elmer). Relative cell number was calculated as the percentage of living cells (draq7 positive amount subtracted from the Hoechst positive amount) relative to the average of living cells in the control wells. As a positive control, 2 donors of PHHs were seeded at 10 000 cells per well. Drugs were administrated after 8 hours of attachment. HepG2 cells were seeded at 40 000 cells per well. For control conditions HepG2 cells were exposed after 2 days of culture. For AAGLY conditions HepG2 cells were maintained in the supplemented medium for 30 days before exposure.

Question: What does the source list for `CC(=O)Nc1ccc(O)cc1` [APAP, acetaminophen]?
Answer: Toxicity (HC6X cells): no toxicity; Toxicity (HepG2 cells): not able to pick up toxicity
